Patent publication US9409952B2, “Peptide-compound cyclization method” (Chugai Seiyaku Kabushiki Kaisha, priority 2011, dated 2016)
Where two headings read alike, the source gives them in different places. Starred links: 1 amine or outer side, 2 acyl side, 3 side chain; linkers in the order of their positions; H or OH if unused. Positions of bridges follow the written chain, without caps; N, C: chain ends. Non-standard residues stand in square brackets, D forms with d. Residues, ends and D or L forms follow the SMILES beside them. *: point of attachment. Phe(4-(CH2)5CO) = O=C([C@H](Cc1ccc(CCCCCC(=O)[*:3])cc1)N[*:1])[*:2]; NMeF = CN[C@@H](Cc1ccccc1)C(=O)O; NMeGABA = CN(CCCC(=O)[*:2])[*:1]; NMeI = CC[C@H](C)[C@H](NC)C(=O)O; NMeβAla = CN(CCC(=O)[*:2])[*:1]; NMeL = CN[C@@H](CC(C)C)C(=O)O; NMeV = CN[C@H](C(=O)O)C(C)C; NMeS = CN[C@@H](CO)C(=O)O; NMeA = CN[C@@H](C)C(=O)O; Piperidide = C1CCN(*)CC1; dNMeA = CN[C@H](C)C(=O)O; β3hA = C[C@H](N)CC(=O)O; Sar = CNCC(=O)O; tBu = CC(C)(C)*

Assays:
[1] = PAMPA (parallel artificial membrane permeability assay); type: in vitro ADME; details: PAMPA
Method in brief: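 Artificial membrane was 10% (w/v) egg lecithin plus 0.5% (w/v) cholesterol in dodecane on a PVDF filter. A 10 mM DMSO stock was added at 0.5% (v/v) to donor buffer (50 mM MOPSO, pH 6.5, 5.0% glycocholic acid). After 18 h at 37 °C, LC/MS or LC/UV gave donor and acceptor levels for Pe.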

[2] = Metabolic stability in human hepatic microsome; type: in vitro ADME; details: microsomes
[3] = membrane permeation rate (Pe), 50 mM MOPSO buffer pH 6.5 with 5.0% glycocholic acid, 37° C., 18 hours, read-out: iPAMPA Pe
[4] = pH 7.4, human hepatic microsome, NADPH(+), read-out: CL NADPH(+)

Row | Compound | Papp at 18 hours, 50 µM [1, 3] | microsomal CLint at 1 uM [2, 4] | Papp at 18 hours, 50 µM ([1]; pH 6.5) | microsomal CLint at 1 uM ([2]; human, pH 7.4, CL NADPH(+))
1 | CC(C)C[C@H]1C(=O)N(C)[C@@H](C)C(=O)N[C@@H]([C@@H](C)O)C(=O)N(C)[C@@H](C)C(=O)N[C@H](C(=O)N(C)[C@@H](Cc2ccccc2)C(=O)N(C)[C@@H](Cc2ccccc2)C(=O)N[C@@H](C)C(=O)N2CCCCC2)CC(=O)N(C)CCC(=O)N(C)[C@@H](Cc2ccccc2)C(=O)N(C)[C@@H](CC(C)C)C(=O)N(C)[C@@H](C)C(=O)N[C@@H](C(C)C)C(=O)N1C [DP-500] ([NMeβAla][NMeF][NMeL][NMeA]V[NMeL][NMeA]T[NMeA]D[NMeF][NMeF]A-Piperidide; lactam N-10) | 27 ×10⁻⁶ cm/s | 28 µL/min/mg |  | 
2 | CC[C@H](C)[C@@H]1NC(=O)[C@H](CC(C)C)N(C)C(=O)[C@H](C)NC(=O)CCCN(C)C(=O)C[C@H](C)NC(=O)[C@H]([C@@H](C)O)NC(=O)[C@H](Cc2ccccc2)NC(=O)[C@H](C(C)C)N(C)C(=O)[C@H](Cc2ccccc2)N(C)C1=O [DP-824] (cyclo(A[NMeL]I[NMeF][NMeV]FT[β3hA][NMeGABA])) | 29 ×10⁻⁶ cm/s | 501 µL/min/mg |  | 
3 | CC[C@H](C)[C@H]1C(=O)N[C@@H](C)C(=O)N(C)[C@@H](Cc2ccccc2)C(=O)N[C@@H]([C@@H](C)O)C(=O)N(C)CC(=O)N(C)[C@@H](Cc2ccccc2)C(=O)N(C)[C@@H](CC(C)C)C(=O)N[C@H](C(=O)N2CCCCC2)CC(=O)N(C)CCC(=O)N[C@@H](CC(C)C)C(=O)N(C)[C@@H](CC(C)C)C(=O)N1C [DP-48] ([NMeβAla]L[NMeL][NMeI]A[NMeF]T[Sar][NMeF][NMeL]D-Piperidide; lactam N-11) |  |  | 33 ×10⁻⁶ cm/s | 32 µL/min/mg
4 | CC(C)C[C@H]1C(=O)N(C)[C@@H](CC(C)C)C(=O)N[C@@H](C)C(=O)N(C)[C@@H](CC(C)C)C(=O)N(C)[C@@H](Cc2ccccc2)C(=O)N(C)[C@@H](Cc2ccccc2)C(=O)N[C@@H]([C@@H](C)O)C(=O)N(C)[C@@H](C)C(=O)N(C)[C@@H](CC(C)C)C(=O)N[C@H](C(=O)N2CCCCC2)Cc2ccc(cc2)CCCCCC(=O)N1C [DP-858] ([NMeL][NMeL]A[NMeL][NMeF][NMeF]T[NMeA][NMeL][Phe(4-(CH2)5CO)]-Piperidide; lactam N-10) | 1 ×10⁻⁶ cm/s | 77 µL/min/mg |  | 
5 | CC(C)C[C@H]1C(=O)N[C@@H]([C@@H](C)O)C(=O)N(C)[C@@H](C)C(=O)N(C)[C@@H](CC(C)C)C(=O)N[C@H](C(=O)N2CCCCC2)CC(=O)N(C)CCCC(=O)N[C@@H](C)C(=O)N(C)[C@@H](Cc2ccccc2)C(=O)N[C@@H](Cc2ccccc2)C(=O)N1C [DP-128] ([NMeGABA]A[NMeF]F[NMeL]T[NMeA][NMeL]D-Piperidide; lactam N-9) | 23 ×10⁻⁶ cm/s | 276 µL/min/mg |  | 
6 | CC[C@H](C)[C@@H]1NC(=O)[C@H](C)N(C)C(=O)[C@H]([C@@H](C)O)NC(=O)[C@H](C)N(C)C(=O)[C@H](C(C)C)N(C)C(=O)[C@H](Cc2ccccc2)NC(=O)CN(C)C(=O)C[C@@H](C(=O)N(C)[C@@H](Cc2ccccc2)C(=O)N[C@@H](C)C(=O)N2CCCCC2)NC(=O)[C@H](C)N(C)C(=O)[C@H](CC(C)C)N(C)C1=O [DP-195] ([Sar]F[NMeV][NMeA]T[NMeA]I[NMeL][NMeA]D[NMeF]A-Piperidide; lactam N-10) | 8 ×10⁻⁶ cm/s | 52 µL/min/mg |  | 
7 | CC[C@H](C)[C@@H]1NC(=O)[C@@H](C)NC(=O)C[C@@H](C(=O)N2CCCCC2)NC(=O)[C@H](Cc2ccccc2)NC(=O)[C@H]([C@@H](C)O)NC(=O)[C@H](C)NC(=O)[C@H](Cc2ccccc2)NC(=O)[C@H](CC(C)C)NC(=O)[C@H](CC(C)C)N(C)C(=O)[C@H](Cc2ccccc2)NC(=O)[C@H](CC(C)C)NC1=O [DP-415] ([dA]ILF[NMeL]LFATFD-Piperidide; lactam N-11) | 2.9 ×10⁻⁶ cm/s | 118 µL/min/mg |  | 
8 | CC[C@H](C)[C@@H]1NC(=O)[C@H](Cc2ccccc2)NC(=O)[C@H](CC(C)C)NC(=O)[C@H](CC(C)C)NC(=O)[C@H](C)NC(=O)C[C@@H](C(=O)N2CCCCC2)NC(=O)[C@H](CC(C)C)N(C)C(=O)[C@H](Cc2ccccc2)NC(=O)[C@H](CC(C)C)NC(=O)CNC(=O)[C@H]([C@@H](C)O)NC1=O [DP-513] (ALLFITGLF[NMeL]D-Piperidide; lactam N-11) | 30 ×10⁻⁶ cm/s | 184 µL/min/mg |  | 
9 | CC[C@H](C)[C@H]1C(=O)N(C)[C@@H](CC(C)C)C(=O)N[C@@H]([C@@H](C)O)C(=O)N2CCC[C@H]2C(=O)N[C@@H](Cc2ccccc2)C(=O)N[C@H](C(=O)N2CCCCC2)CC(=O)N(C)CC(=O)N(C)[C@@H](CC(C)C)C(=O)N[C@@H](Cc2ccccc2)C(=O)N[C@@H](CC(C)C)C(=O)NCC(=O)N1C [DP-106] ([Sar][NMeL]FLG[NMeI][NMeL]TPFD-Piperidide; lactam N-11) |  |  | 34 ×10⁻⁶ cm/s | 155 µL/min/mg
10 | CC(C)C[C@@H]1NC(=O)[C@H](CC(C)C)N(C)C(=O)CCN(C)C(=O)C[C@@H](C(=O)N(C)[C@@H](Cc2ccccc2)C(=O)N[C@@H](C)C(=O)N2CCCCC2)NC(=O)[C@H]([C@@H](C)O)NC(=O)[C@H](CC(C)C)N(C)C(=O)[C@H](Cc2ccccc2)NC(=O)[C@H](Cc2ccccc2)N(C)C(=O)[C@H](CC(C)C)N(C)C1=O [DP-461] ([NMeβAla][NMeL]L[NMeL][NMeF]F[NMeL]TD[NMeF]A-Piperidide; lactam N-9) | 33 ×10⁻⁶ cm/s | 78 µL/min/mg |  | 
11 | CC(C)C[C@@H]1NC(=O)[C@H](CC(C)C)N(C)C(=O)[C@H](C)N(C)C(=O)[C@@H](C)N(C)C(=O)C[C@@H](C(=O)N2CCCCC2)NC(=O)[C@H]([C@@H](C)O)NC(=O)CN(C)C(=O)[C@H](Cc2ccccc2)NC(=O)[C@H](CC(C)C)N(C)C(=O)[C@H](C(C)C)N(C)C(=O)[C@H](Cc2ccccc2)N(C)C1=O [DP-165] ([dNMeA][NMeA][NMeL]L[NMeF][NMeV][NMeL]F[Sar]TD-Piperidide; lactam N-11) | 56 ×10⁻⁶ cm/s | 42 µL/min/mg |  | 
12 | CC(C)C[C@@H]1NC(=O)[C@H](CO)N(C)C(=O)[C@H](CC(C)C)N(C)C(=O)[C@H](CC(C)C)N(C)C(=O)[C@H](CC(C)C)N(C)C(=O)C[C@H](C)NC(=O)[C@H](C)NC(=O)[C@H](CC(C)C)N(C)C(=O)[C@H](CC(C)C)NC(=O)[C@H](CC(C)C)N(C)C(=O)CN(C)C1=O [DP-644] (cyclo(A[β3hA][NMeL][NMeL][NMeL][NMeS]L[Sar][NMeL]L[NMeL])) | 33 ×10⁻⁶ cm/s | 80 µL/min/mg |  | 
13 | CC(C)C[C@H]1C(=O)N(C)[C@@H](Cc2ccccc2)C(=O)N(C)[C@@H](Cc2ccccc2)C(=O)NCC(=O)N(C)[C@@H](C)C(=O)N[C@@H]([C@@H](C)O)C(=O)N[C@H](C(=O)N(C)[C@@H](Cc2ccccc2)C(=O)N(C)[C@@H](Cc2ccccc2)C(=O)N[C@@H](C)C(=O)N2CCCCC2)CC(=O)N(C)[C@@H](C)C(=O)N[C@@H](C(C)C)C(=O)N1C [DP-309] ([NMeA]V[NMeL][NMeF][NMeF]G[NMeA]TD[NMeF][NMeF]A-Piperidide; lactam N-9) |  |  | 26 ×10⁻⁶ cm/s | 212 µL/min/mg
14 | CC[C@H](C)[C@H]1C(=O)N[C@@H](CC(C)C)C(=O)N2CCC[C@H]2C(=O)N[C@@H]([C@@H](C)O)C(=O)N(C)[C@@H](C)C(=O)N[C@@H](Cc2ccccc2)C(=O)N[C@H](C(=O)N2CCCCC2)CC(=O)N(C)[C@@H](C)C(=O)N[C@@H](Cc2ccccc2)C(=O)N(C)[C@@H](CC(C)C)C(=O)N[C@@H](COC(C)(C)C)C(=O)NCC(=O)N1C [DP-57] ([NMeA]F[NMeL]S(tBu)G[NMeI]LPT[NMeA]FD-Piperidide; lactam N-12) |  |  | 26 ×10⁻⁶ cm/s | 23 µL/min/mg
